Reference: patent US10508085B2, “Compounds and methods for IDO and TDO modulation, and indications therefor” (Plexxikon Inc., priority 2016, dated 2019)
Like-named read-outs stand apart in the source and are kept apart here.

Legend:
[1] = biological target: T1, human TDO (TDO-expressing HEK293 cells) (Homo sapiens, UniProt P48775); experiment: Cell based kynurenine assay, TDO-expressing HEK293 cell clones
T1 construct: expressed in transfected cells
Summary of the method: (§1)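 Cellular IDO1 and TDO activity is followed as kynurenine released by stably transfected HEK293 clones over 24 h with test compound. Controls are DMSO-treated cells and media alone.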

[2] = biological target: T2, Human Indoleamine 2,3-dioxygenase (IDO) (Homo sapiens, UniProt P14902); experiment: Human IDO enzymatic assay (kynurenine level); assay type: biochemical
T2 construct: His tag (N); made in house; host or cells: E. coli
T2 sequence (P14902 whole entry): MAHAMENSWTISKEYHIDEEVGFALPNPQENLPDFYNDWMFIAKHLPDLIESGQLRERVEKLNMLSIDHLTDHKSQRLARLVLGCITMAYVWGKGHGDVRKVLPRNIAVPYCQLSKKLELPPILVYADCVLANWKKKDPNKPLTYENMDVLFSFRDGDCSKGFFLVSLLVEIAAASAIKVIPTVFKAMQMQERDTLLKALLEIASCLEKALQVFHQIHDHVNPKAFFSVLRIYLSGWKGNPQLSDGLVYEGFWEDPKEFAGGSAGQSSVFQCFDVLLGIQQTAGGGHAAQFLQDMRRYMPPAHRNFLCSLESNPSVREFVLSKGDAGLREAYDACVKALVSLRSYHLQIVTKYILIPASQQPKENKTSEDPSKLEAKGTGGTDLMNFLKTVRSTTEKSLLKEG
Summary of the method: (§2)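 N-His human IDO (6 nM, 10 μM L-Trp, 5 μM methylene blue, 20 min) or TDO (1 nM, 350 μM L-Trp, 0.4 μM methylene blue, 70 min) run at room temp in pH 6.5 phosphate with ascorbate, catalase, Tween 20. TCA stop, 30 min 50 °C converts N-formylkynurenine to kynurenine; IC50 by nonlinear regression.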

[3] = biological target: T3, human IDO (IDO1-expressing HEK293 cells) (Homo sapiens, UniProt P14902); experiment: Cell based kynurenine assay, IDO1-expressing HEK293 cell clones
T3 construct: expressed in transfected cells
T3 sequence (P14902 whole entry): as above
Summary of the method: as §1

[4] = biological target: T4, Human Tryptophan 2,3-dioxygenase (TDO) (Homo sapiens, UniProt P48775); experiment: Human TDO enzymatic assay (kynurenine level); assay type: biochemical
T4 construct: His tag (N); made in house; host or cells: E. coli
T4 sequence (P48775 whole entry): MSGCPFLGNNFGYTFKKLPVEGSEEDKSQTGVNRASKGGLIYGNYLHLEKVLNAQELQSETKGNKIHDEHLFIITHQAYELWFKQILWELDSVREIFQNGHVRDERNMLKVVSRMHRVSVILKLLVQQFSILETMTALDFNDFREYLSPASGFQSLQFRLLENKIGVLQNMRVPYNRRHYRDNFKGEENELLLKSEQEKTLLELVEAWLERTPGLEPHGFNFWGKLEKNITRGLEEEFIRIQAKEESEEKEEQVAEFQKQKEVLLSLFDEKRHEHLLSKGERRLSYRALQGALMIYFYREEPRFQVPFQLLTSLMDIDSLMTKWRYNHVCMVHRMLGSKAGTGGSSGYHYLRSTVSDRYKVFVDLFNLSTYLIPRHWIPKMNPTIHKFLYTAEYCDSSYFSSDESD
Summary of the method: as §2

[5] = TDO-expressing HEK293 cells, 24 hours incubation, geometric mean, read-out: HEK293 TDO Kynurenine GMean IC50 (μM) (Cellular Assay)
[6] = 6 nM IDO, 10 μM L-Trp, geometric mean, read-out: IDO1 GMean: IC50 (μM) (Biochemical Assay)
[7] = IDO1-expressing HEK293 cells, 24 hours incubation, geometric mean, read-out: HEK293 IDO1 Kynurenine GMean IC50 (μM) (Cellular Assay)
[8] = 1 nM TDO, 350 μM L-Trp, geometric mean, read-out: TDO GMean: IC50 (μM) (Biochemical Assay)
[9] = TDO-expressing HEK293 cells, 24 hours, geometric mean, read-out: HEK293 TDO Kynurenine GMean IC50 (μM) (Cellular Assay)
[10] = IDO1-expressing HEK293 cells, 24 hours, geometric mean, read-out: HEK293 IDO1 Kynurenine GMean IC50 (μM) (Cellular Assay)

T1 sequence (P48775 whole entry): as above

| IC50 [1, 5] [µM] | IC50 [2, 6] [µM] | IC50 [3, 7] [µM] | IC50 [4, 8] [µM] | IC50 ([1]; cellular assay, HEK293, 24 hours, comparative examples, read-out: hTDO) [µM] | IC50 ([2]; biochemical assay, comparative examples, 4,6 versus 5,7 indazole, read-out: IDO1) [µM] | IC50 ([3]; cellular assay, HEK293, 24 hours, comparative examples, read-out: hIDO1) [µM] | IC50 ([4]; biochemical assay, comparative examples, 4,6 versus 5,7 indazole, read-out: TDO) [µM] | IC50 [1, 9] [µM] | IC50 [3, 10] [µM] | Structure (SMILES) |
| --- | --- | --- | --- | --- | --- | --- | --- | --- | --- | --- |
| 0.0001 to 10 | 0.0001 to 10 | 0.0001 to 10 | 0.0001 to 10 | – | – | – | – | – | – | OC(c1cc(Cl)cc2cn[nH]c12)C1CC2(CCC2)C1 (stereo not drawn) [Compound P-0195, (5-chloro-1H-indazol-7-yl)(spiro[3.3]heptan-2-yl)methanol] |
| 0.0001 to 10 | 0.0001 to 10 | 0.0001 to 10 | 10 to 100 | – | – | – | – | – | – | CC1(C(O)c2c(Cl)ccc3cn[nH]c23)CCCCC1 (stereo not drawn) [Compound P-0207, (6-chloro-1H-indazol-7-yl)(1-methylcyclohexyl)methanol] |
| – | – | – | – | 2.63 | 0.11 | 0.08 | 1.18 | – | – | COC12CCC(C(O)c3cc(Cl)cc4cn[nH]c34)(CC1)CC2 (stereo not drawn) [drawing 812] |
| – | 0.0001 to 10 | – | 0.0001 to 10 | – | – | – | – | 0.0001 to 10 | 0.0001 to 10 | CC(C)(C1CCN(C(=O)C2CCC2)CC1)[C@H](O)c1cc(Cl)cc2cn[nH]c12 [Compound P-0498, (S)-(4-(1-(5-chloro-1H-indazol-7-yl)-1-hydroxy-2-methylpropan-2-yl)piperidin-1-yl)(cyclobutyl)methanone] |
| 0.0001 to 10 | 0.0001 to 10 | 0.0001 to 10 | 0.0001 to 10 | – | – | – | – | – | – | OCC12CCC(C(O)c3cc(Cl)cc4cn[nH]c34)(CC1)CC2 (stereo not drawn) [Compound P-0328, (5-chloro-1H-indazol-7-yl)(4-(hydroxymethyl)bicyclo[2.2.2]octan-1-yl)methanol] |
| 0.0001 to 10 | 0.0001 to 10 | 0.0001 to 10 | 0.0001 to 10 | – | – | – | – | – | – | CC(C)(C1CCN(C2CCCC2)CC1)C(O)c1cc(Cl)cc2cn[nH]c12 (stereo not drawn) [Compound P-0320, 1-(5-chloro-1H-indazol-7-yl)-2-(1-cyclopentylpiperidin-4-yl)-2-methylpropan-1-ol] |
| 0.0001 to 10 | 0.0001 to 10 | 0.0001 to 10 | 0.0001 to 10 | – | – | – | – | – | – | OC(c1cc(Cl)c(F)c2cn[nH]c12)C12CCC(CC1)CC2 (stereo not drawn) [Compound P-0135, bicyclo[2.2.2]octan-1-yl(5-chloro-4-fluoro-1H-indazol-7-yl)methanol] |
| 0.0001 to 10 | 0.0001 to 10 | 0.0001 to 10 | 0.0001 to 10 | – | – | – | – | – | – | CS(=O)(=O)N1C2CCC1CN(c1cc(Cl)cc3cn[nH]c13)C2 [Compound P-0093, 5-chloro-7-(8-(methylsulfonyl)-3,8-diazabicyclo[3.2.1]octan-3-yl)-1H-indazole] |
| 0.0001 to 10 | 0.0001 to 10 | 0.0001 to 10 | 0.0001 to 10 | – | – | – | – | – | – | CC(C)(C1CCOCC1)C(O)c1c(Cl)c(Cl)cc2cn[nH]c12 (stereo not drawn) [Compound P-0220, 1-(5,6-dichloro-1H-indazol-7-yl)-2-methyl-2-(tetrahydro-2H-pyran-4-yl)propan-1-ol] |
| – | 0.0001 to 10 | – | 0.0001 to 10 | – | – | – | – | > 10 | 0.0001 to 10 | O=C(NCC1CCS(=O)(=O)CC1)N1CCC(C(F)(F)C(O)c2cc(Cl)cc3cn[nH]c23)CC1 (stereo not drawn) [Compound P-0467, 4-(2-(5-chloro-1H-indazol-7-yl)-1,1-difluoro-2-hydroxyethyl)-N-((1,1-dioxidotetrahydro-2H-thiopyran-4-yl)methyl)piperidine-1-carboxamide] |
| 0.0001 to 10 | 0.0001 to 10 | 0.0001 to 10 | 0.0001 to 10 | – | – | – | – | – | – | CC1(C)[C@H]2CCC3(CC(O)(c4cc(Cl)cc5cn[nH]c45)C3)[C@@H]1C2 (stereo partly drawn) [Compound P-0190] |
| 0.0001 to 10 | 0.0001 to 10 | 0.0001 to 10 | 0.0001 to 10 | – | – | – | – | – | – | CC(C1CC1)(C1CC1)C(O)c1cc(Cl)cc2cn[nH]c12 (stereo not drawn) [Compound P-0259, 1-(5-chloro-1H-indazol-7-yl)-2,2-dicyclopropylpropan-1-ol] |
| > 10 | 0.0001 to 10 | 0.0001 to 10 | 0.0001 to 10 | – | – | – | – | – | – | OC(c1cccc2cncn12)C1CCCC1 (stereo not drawn) [Compound P-0058, cyclopentyl(imidazo[1,5-a]pyridin-5-yl)methanol] |
| – | 0.0001 to 10 | – | 0.0001 to 10 | – | – | – | – | 0.0001 to 10 | 0.0001 to 10 | COCC(=O)N1CCC(C(C)(C)C(O)c2cc(Cl)cc3cn[nH]c23)CC1 (stereo not drawn) [Compound P-0414, 1-(4-(1-(5-chloro-1H-indazol-7-yl)-1-hydroxy-2-methylpropan-2-yl)piperidin-1-yl)-2-methoxyethan-1-one] |
| 0.0001 to 10 | 0.0001 to 10 | 0.0001 to 10 | 0.0001 to 10 | – | – | – | – | – | – | CC(C)(CCC#N)C(O)c1cc(Cl)cc2cn[nH]c12 (stereo not drawn) [Compound P-0213, 5-(5-chloro-1H-indazol-7-yl)-5-hydroxy-4,4-dimethylpentanenitrile] |
| 0.0001 to 10 | 0.0001 to 10 | 0.0001 to 10 | 0.0001 to 10 | – | – | – | – | – | – | CC(=O)N1CCC(C(F)(F)C(O)c2c(F)c(Cl)cc3cn[nH]c23)CC1 (stereo not drawn) [Compound P-0128, 1-(4-(2-(5-chloro-6-fluoro-1H-indazol-7-yl)-1,1-difluoro-2-hydroxyethyl)piperidin-1-yl)ethan-l-one] |
| – | 0.0001 to 10 | – | 0.0001 to 10 | – | – | – | – | 0.0001 to 10 | 0.0001 to 10 | CC(C)(C(O)c1cc(Cl)cc2cn[nH]c12)[C@H]1C[C@H]2CC[C@@H](C1)N2C(=O)NCC(F)(F)F (stereo partly drawn) [Compound P-0438, (1R,3r,5S)-3-(1-(5-chloro-1H-indazol-7-yl)-1-hydroxy-2-methylpropan-2-yl)-N-(2,2,2-trifluoroethyl)-8-azabicyclo[3.2.1] octane-8-carboxamide] |
| 0.0001 to 10 | 0.0001 to 10 | 0.0001 to 10 | 0.0001 to 10 | – | – | – | – | – | – | CC(C)(C1CCN(C(=O)Nc2ccccn2)CC1)C(O)c1cc(Cl)cc2cn[nH]c12 (stereo not drawn) [Compound P-0389, 4-(1-(5-chloro-1H-indazol-7-yl)-1-hydroxy-2-methylpropan-2-yl)-N-(pyridin-2-yl)piperidine-1-carboxamide] |
| > 10 | 0.0001 to 10 | 0.0001 to 10 | 0.0001 to 10 | – | – | – | – | – | – | OC(CCC1CCCCC1)c1cc(Cl)cc2cn[nH]c12 (stereo not drawn) [Compound P-0009, 1-(5-chloro-1H-indazol-7-yl)-3-cyclohexylpropan-l-ol] |
| – | 0.0001 to 10 | – | 0.0001 to 10 | – | – | – | – | 0.0001 to 10 | 0.0001 to 10 | COCCCNC(=O)N1CCC(C(C)(C)[C@H](O)c2cc(Cl)cc3cn[nH]c23)CC1 [Compound P-0553, (S)-4-(1-(5-chloro-1H-indazol-7-yl)-1-hydroxy-2-methylpropan-2-yl)-N-(3-methoxypropyl) piperidine-1-carboxamide] |
| > 10 | 0.0001 to 10 | 0.0001 to 10 | 0.0001 to 10 | – | – | – | – | – | – | CS(=O)(=O)N1CC(C(O)c2cc(Cl)cc3cn[nH]c23)C1 (stereo not drawn) [Compound P-0226, (5-chloro-1H-indazol-7-yl)(1-(methylsulfonyl)azetidin-3-yl)methanol] |
| – | 0.0001 to 10 | – | 0.0001 to 10 | – | – | – | – | 0.0001 to 10 | 0.0001 to 10 | CC(C)(C1CCN(C(=O)NC(=O)c2ccccc2)CC1)[C@H](O)c1c(F)c(Cl)cc2cn[nH]c12 [Compound P-0514, (S)-N-benzoyl-4-(1-(5-chloro-6-fluoro-1H-indazol-7-yl)-1-hydroxy-2-methylpropan-2-yl)piperidine-1-carboxamide] |
| 0.0001 to 10 | 0.0001 to 10 | 0.0001 to 10 | 0.0001 to 10 | – | – | – | – | – | – | CC1(C(O)c2cc(Br)cc3cncn23)CCCCC1 (stereo not drawn) [Compound P-0082, (7-bromoimidazo[1,5-a]pyridin-5-yl)(1-methylcyclohexyl)methanol] |
| 0.0001 to 10 | 0.0001 to 10 | 0.0001 to 10 | 0.0001 to 10 | – | – | – | – | – | – | CC(C)CC(=O)N1CCC(C(F)(F)C(O)c2c(F)c(Cl)cc3cn[nH]c23)CC1 (stereo not drawn) [Compound P-0375, 1-(4-(2-(5-chloro-6-fluoro-1H-indazol-7-yl)-1,1-difluoro-2-hydroxyethyl)piperidin-1-yl)-3-methylbutan-1-one] |
| 0.0001 to 10 | 0.0001 to 10 | 0.0001 to 10 | 0.0001 to 10 | – | – | – | – | – | – | COC(=O)N1CCC(C(F)(F)C(O)c2c(F)c(Cl)cc3cn[nH]c23)CC1 (stereo not drawn) [Compound P-0342, methyl 4-(2-(5-chloro-6-fluoro-1H-indazol-7-yl)-1,1-difluoro-2-hydroxyethyl) piperidine-1-carboxylate] |
| 0.0001 to 10 | 0.0001 to 10 | 0.0001 to 10 | 0.0001 to 10 | – | – | – | – | – | – | Cc1ccc(NC(=O)N2CCC(C(C)(C)C(O)c3cc(Cl)cc4cn[nH]c34)CC2)cc1 (stereo not drawn) [Compound P-0397, 4-(1-(5-chloro-1H-indazol-7-yl)-1-hydroxy-2-methylpropan-2-yl)-N-(p-tolyl) piperidine-1-carboxamide] |
| 0.0001 to 10 | 0.0001 to 10 | 0.0001 to 10 | 0.0001 to 10 | – | – | – | – | – | – | CC(C)(C1CCOCC1)C(O)c1cc(Cl)cc2cn[nH]c12 (stereo not drawn) [Compound P-0191, 1-(5-chloro-1H-indazol-7-yl)-2-methyl-2-(tetrahydro-2H-pyran-4-yl)propan-1-ol] |
